{"source": "patent US4011390A", "about": "“Semi-synthetic aminocyclitol aminoglycoside antibiotics and methods for the preparation thereof” (Schering-Plough Corporation, priority 1974, dated 1977)", "type_in_all_cases": "cell-based", "key": {"[1]": {"tested_on": "Pseudomonas aeruginosa", "test": "Activity against resistant strains", "conditions": "gentamicin and sisomicin resistant strains", "from_the_text": "(§1) In many instances, bacterial resistance is related to the organism's ability to inactivate the antibacterial agent via enzymatic (biochemical) means. Some species inactivate aminoglycosides antibiotics by acetylating the antibacterial agent, others by phosphorylation and still others by adenylylating. Some strains have several different inactivating capabilities. Further, the inactivation reactions occur at a specific site or sites on the antibacterial agent. We have shown by the compounds of this invention that alteration of sites on the antibiotic molecule not directly involved in inactivation processes can nevertheless frustrate these inactivation processes. […] The tables illustrate that the mutamicins include compounds which are active against strains having different mechanisms of inactivation of gentamicin, sisomicin, kanamycin, neomycin and torbramycin. For example, some mutamicins are effective against strains of E. coli which contain adenylylating R factors such as E. coli W677/R55 and LA290/R55. These E. coli strains are resistant to gentamicin, sisomicin and torbramycin. Some are also effective against gentamicin, tobramycin and kanamycin resistant adenylylating strains of Klebsiella pneumoniae and also kanamycin, neomycin phosphorylating strains of E. coli and Klebsiella pneumoniae. Further, some mutamicins are effective against gentamicin and sisomicin resistant strains of Pseudomonas aeruginosa and gentamicin, sisomicin, tobramycin resistant Providence which is sensitive to kanamycin. Thus, the mutamicins afford a means for combatting strains of bacteria which have already developed a variety of mechanisms for resisting the action of many of the antibiotics known in the art or currently in commercial use."}, "[2]": {"tested_on": "Klebsiella pneumoniae", "test": "Activity against resistant strains", "conditions": "gentamicin, tobramycin and kanamycin resistant adenylylating strains", "from_the_text": "as §1"}, "[3]": {"tested_on": "E. coli", "test": "Activity against resistant strains", "conditions": "E. coli W677/R55 and LA290/R55", "from_the_text": "as §1"}, "[4]": {"tested_on": "Providence", "test": "Activity against resistant strains", "conditions": "gentamicin, sisomicin, tobramycin resistant Providence", "from_the_text": "as §1"}, "[5]": {"tested_on": "Streptococcus pyogenes", "test": "Disc test, Bauer-Kirby technique with 10 Mcg. discs", "from_the_text": "(§2) Disc Test Results (Replicate Tests) With The Mutamicins, Sisomicin and\n(§3) Bauer-Kirby Technique^1 With 10 Mcg. Discs\n(§4) ^1 Bauer, Kirby, Sherris and Turck, American Journal of Clinical"}, "[6]": {"tested_on": "Pseudomonas aeruginosa", "test": "Disc test, Bauer-Kirby technique with 10 Mcg. discs", "from_the_text": "as §2, §3, §4"}, "[7]": {"tested_on": "Klebsiella pneumoniae", "test": "Disc test, Bauer-Kirby technique with 10 Mcg. discs", "from_the_text": "as §2, §3, §4"}, "[8]": {"tested_on": "Bacillus subtilis", "test": "Disc test, Bauer-Kirby technique with 10 Mcg. discs", "conditions": "strain ATCC 6633", "from_the_text": "as §2, §3, §4"}, "[9]": {"tested_on": "Staphylococcus aureus", "test": "Disc test, Bauer-Kirby technique with 10 Mcg. discs", "from_the_text": "as §2, §3, §4"}, "[10]": {"tested_on": "Providence 164", "test": "Disc test, Bauer-Kirby technique with 10 Mcg. discs", "conditions": "strain 164", "from_the_text": "as §2, §3, §4"}, "[11]": {"tested_on": "Escherichia coli", "test": "Disc test, Bauer-Kirby technique with 10 Mcg. discs", "conditions": "10 Mcg. discs", "from_the_text": "as §2, §3, §4"}}}
{"substance": "gentamicin [reference compound]", "values": [{"measurement": "activity against resistant strains", "setting": "[1]", "result": "resistant"}, {"measurement": "activity against resistant adenylylating strains", "setting": "[2]", "result": "resistant"}, {"measurement": "activity against strains containing adenylylating R factors", "setting": "[3]", "result": "resistant"}, {"measurement": "activity against resistant Providence", "setting": "[4]", "result": "resistant"}, {"measurement": "Zone Size", "setting": "[5]; strain B-Cruz", "result": 16, "unit": "mm"}, {"measurement": "Zone Size", "setting": "[5]; strain C", "result": 13, "unit": "mm"}, {"measurement": "Zone Size", "setting": "[6]; strain Capetown 18", "result": 12, "unit": "mm"}, {"measurement": "Zone Size", "setting": "[6]; strain D-2", "result": 23, "unit": "mm"}, {"measurement": "Zone Size", "setting": "[6]; strain St. Michael 413", "result": 26, "unit": "mm"}, {"measurement": "Zone Size", "setting": "[6]; strain St. Michael 762", "result": 24, "unit": "mm"}, {"measurement": "Zone Size", "setting": "[6]; strain St. Michael 1262", "result": 25, "unit": "mm"}, {"measurement": "Zone Size", "setting": "[6]; strain St. Michael 1395", "result": 26, "unit": "mm"}, {"measurement": "Zone Size", "setting": "[6]; strain Stone 20", "result": 27, "unit": "mm"}, {"measurement": "Zone Size", "setting": "[6]; strain Stone 39", "result": 25, "unit": "mm"}, {"measurement": "Zone Size", "setting": "[6]; strain Stone 130", "result": 12, "unit": "mm"}, {"measurement": "Zone Size", "setting": "[6]; strain Stone 138", "result": 10, "unit": "mm"}, {"measurement": "Zone Size", "setting": "[7]; strain Ad 17", "result": 22, "unit": "mm"}, {"measurement": "Zone Size", "setting": "[7]; strain Ad 18", "result": 25, "unit": "mm"}, {"measurement": "Zone Size", "setting": "[7]; strain Georgetown 3020", "result": 11, "unit": "mm"}, {"measurement": "Zone Size", "setting": "[7]; strain Georgetown 3694", "result": 13, "unit": "mm"}, {"measurement": "Zone Size", "setting": "[8]", "result": 31, "unit": "mm"}, {"measurement": "Zone Size", "setting": "[9]; strain 59N", "result": 28, "unit": "mm"}, {"measurement": "Zone Size", "setting": "[9]; strain ATCC 6538P", "result": 25, "unit": "mm"}, {"measurement": "Zone Size", "setting": "[9]; strain Wood", "result": 27, "unit": "mm"}, {"measurement": "Zone Size", "setting": "[9]; strain Ziegler", "result": 26, "unit": "mm"}, {"measurement": "Zone Size", "setting": "[10]", "result": 11, "unit": "mm"}, {"measurement": "Zone Size", "setting": "[11]; strain 589", "result": 23, "unit": "mm"}, {"measurement": "Zone Size", "setting": "[11]; strain ATCC 10536", "result": 28, "unit": "mm"}, {"measurement": "Zone Size", "setting": "[11]; strain JR88", "result": 11, "unit": "mm"}, {"measurement": "Zone Size", "setting": "[11]; strain JR90", "result": 0, "unit": "mm"}, {"measurement": "Zone Size", "setting": "[11]; strain LA290/R55", "result": 12, "unit": "mm"}, {"measurement": "Zone Size", "setting": "[11]; strain Swidinsky 4195", "result": 23, "unit": "mm"}, {"measurement": "Zone Size", "setting": "[11]; strain W677/R55", "result": 13, "unit": "mm"}]}
